# Measured values published in paper PMC9167041 (Computational and Structural Biotechnology Journal, 2022).
# Target: SARS-CoV-2 M^pro (Severe acute respiratory syndrome coronavirus 2, UniProt P0DTD1)
# Test: SARS-CoV-2 Mpro in vitro enzyme-based assay
# Format: biochemical
# Details: compound at 10 μM
structure (smiles),measurement,value
C=C1CCC2[C@](C)(COC(C)=O)[C@H](OC(C)=O)CC[C@@]2(C)[C@@H]1C[C@H](SC(=S)N1CCN(C(=O)C2COc3ccccc3O2)CC1)C1=CCOC1=O (stereo partly shown) [3j],inhibition of SARS-CoV-2 M^pro,rather low inhibitory effect
